Data set [1] deals with Mus musculus. As to the kind of experiment: Anticonvulsant activity against subcutaneous pentylenetetrazole-induced seizures in ip dosed Mus musculus Swiss (mouse) at 30 mg/kg, ip measured at phase 2. The following applies: sc. The data set is classed as functional.
In data set [2] the test system is Mus musculus. The data set can be described thus: Anticonvulsant activity against maximal electroshock-induced seizures in ip dosed Mus musculus Swiss (mouse) administered 30 min before MES induction measured at phase 2. The data set is classed as functional.
Data set [3] has as its system Mus musculus. As to the kind of experiment: Protective index, ratio of TD50 for Mus musculus Swiss (mouse) to ED50 for Mus musculus Swiss (mouse) by subcutaneous pentylenetetrazole-induced seizure test. Format: functional.
The species entered for data set [4] is Mus musculus. The data set can be described thus: Protective index, ratio of TD50 for Mus musculus Swiss (mouse) to ED50 for Mus musculus Swiss (mouse) by maximal electroshock-induced seizure test. Format: functional.
Data set [5] is described as follows: (§1) Neurotoxicity in ip dosed Mus musculus Swiss (mouse) assessed as minimum motor impairment by rotarod test. Format: toxicity, organism-based. The following applies: Swiss, in vivo.
Data set [6] deals with Mus musculus. The data set can be described thus: Anticonvulsant activity against subcutaneous pentylenetetrazole-induced seizures in Mus musculus Swiss (mouse) at 100 mg/kg, ip measured at phase 1. Format: functional, organism-based. Details: dose 100 mg/kg.
In data set [7] the test system is Mus musculus. As to the kind of experiment: Anticonvulsant activity against subcutaneous pentylenetetrazole-induced seizures in Mus musculus Swiss (mouse) at 30 mg/kg, ip measured at phase 1. The data set is classed as functional, organism-based. Details: dose 30 mg/kg.
In data set [8] the test system is Mus musculus. As to the kind of experiment: Anticonvulsant activity against maximal electroshock-induced seizures in Mus musculus Swiss (mouse) at 100 mg/kg, ip administered 30 min before MES induction measured at phase 1. Format: functional, organism-based. Details: dose 100 mg/kg. In general terms: Protection in the maximal electroshock model is a classic sign of anticonvulsant action.

Data set [9] has as its system Mus musculus. As to the kind of experiment: Anticonvulsant activity against maximal electroshock-induced seizures in Mus musculus Swiss (mouse) at 30 mg/kg, ip administered 30 min before MES induction measured at phase 1. Details: dose 30 mg/kg. Format: functional, organism-based.
Data set [10] relates to Mus musculus. As to the kind of experiment: Anticonvulsant activity against maximal electroshock-induced seizures in Mus musculus Swiss (mouse) at 300 mg/kg, ip administered 30 min before MES induction measured at phase 1. The data set is classed as functional, organism-based. Details: dose 300 mg/kg.
Data set [11] has as its system Mus musculus. Described as §1. The data set is classed as toxicity, organism-based. As to conditions: in vivo.

Active and inactive are the calls of the source. The rule behind the calls is not given here. Where only a bound is given, the exact number is not on record here.

The term ED50 denotes the dose at which the effect has come halfway, by size or by number of responders. Read a low ED50 as an effect at a small dose. One may read the TD50 as the dose at which the toxic effect under study appears in half of the subjects.

`CCC1(c2ccccc2)C(=O)NC(=O)NC1=O` [PHENOBARBITAL]: the figures for the ED50 in the data set on Mus musculus [1] and in the data set on Mus musculus [2] were 13.2 mg/kg and 21.8 mg/kg, respectively.

The compound `O=C1NC(=O)C(c2ccccc2)(c2ccccc2)N1` [PHENYTOIN] showed an ED50 in the data set with Mus musculus [1] above 300 mg/kg.

Consider `Clc1cccc(COc2ccc3c(c2)CCCc2nncn2-3)c1`, for which the “Ratio TD50/ED50” value in the data set on Mus musculus [3] amounted to 1.5; in the data set listed under Mus musculus [4] it was 4.1. In data set [5], the TD50 stood at 120 mg/kg. The values for the 50% effective dose (ED50) in the data set with Mus musculus [1] and in the data set with Mus musculus [2] were 80.7 mg/kg and 29.5 mg/kg, respectively. Further, the outcome in the data set on Mus musculus [6] and in the data set on Mus musculus [8] was Active. Further, in the data set on Mus musculus [7], the result was inactive.

Regarding `CCCCOc1ccc2c(c1)CCCc1nncn1-2`, the “Ratio TD50/ED50” value in the data set with Mus musculus [3] worked out at 2; in the data set filed under Mus musculus [4] it was 3.5. For the same compound, the TD50 in data set [5] amounted to 73.3 mg/kg. Further, the ED50 was 36.7 mg/kg in the data set on Mus musculus [1] and 21.2 mg/kg in the data set on Mus musculus [2]. Moreover, the result in the data set with Mus musculus [6] and in the data set on Mus musculus [9] was Active.

With `CCCCCOc1ccc2c(c1)CCCc1nncn1-2`, the “Ratio TD50/ED50” value amounted to 5.4 in the data set on Mus musculus [3] and 6.5 in the data set listed under Mus musculus [4]. Besides, in data set [5], the TD50 is 114 mg/kg. Besides, the median effective dose (ED50) came out at 21.2 mg/kg with Mus musculus [1] and 17.5 mg/kg in the data set with Mus musculus [2]. Moreover, the result with Mus musculus [7] and in the data set on Mus musculus [9] was Active.

On to `NC(=O)N1c2ccccc2C=Cc2ccccc21` [CARBAMAZEPINE], for which the median effective dose (ED50) in the data set with Mus musculus [1] is above 100 mg/kg; with Mus musculus [2], 8.8 mg/kg.

On to `Fc1ccccc1COc1ccc2c(c1)CCCc1nncn1-2`, for which the “Ratio TD50/ED50” value is 2.4 in the data set on Mus musculus [3] and 4.5 in the data set filed under Mus musculus [4]. Also, in [5], the TD50 stood at 84.9 mg/kg. Moreover, the median effective dose (ED50) came out at 35.4 mg/kg in the data set with Mus musculus [1] and 19 mg/kg in the data set on Mus musculus [2]. Besides, the outcome in the data set on Mus musculus [6] and in the data set with Mus musculus [9] was Active.

Regarding `CCCC(CCC)C(=O)O` [VALPROIC ACID], the ED50 in the data set on Mus musculus [1] turned out to be 149 mg/kg.

Regarding `CCCCCCOc1ccc2c(c1)CCCc1nncn1-2`, the “Ratio TD50/ED50” value with Mus musculus [3] is listed as 3.4; in the data set filed under Mus musculus [4], 4.8. In addition, in [5], the TD50 was determined as 84.2 mg/kg. Besides, the values for the ED50 with Mus musculus [1] and with Mus musculus [2] were 24.6 mg/kg and 17.7 mg/kg, respectively. Also, the outcome with Mus musculus [9] was Active.

Take `COc1ccc2c(c1)CCCc1nncn1-2`: the outcome with Mus musculus [6] and in the data set with Mus musculus [7] was inactive. In addition, the result with Mus musculus [10] and with Mus musculus [9] was Active.

Regarding `c1ccc(COc2ccc3c(c2)CCCc2nncn2-3)cc1`, the “Ratio TD50/ED50” value with Mus musculus [3] is on record as 1; in the data set filed under Mus musculus [4] it was 3.3. The TD50 in data set [5] came to 78.9 mg/kg. Moreover, the 50% effective dose (ED50) in the data set with Mus musculus [1] is 78.9 mg/kg; with Mus musculus [2] it was 23.7 mg/kg. For the same compound, the outcome in the data set on Mus musculus [6] and in the data set on Mus musculus [9] was Active. For the same compound, the result in the data set on Mus musculus [7] was inactive.

Take `Clc1ccccc1COc1ccc2c(c1)CCCc1nncn1-2`: the “Ratio TD50/ED50” value was below 0.7 with Mus musculus [3] and 3.4 in the data set filed under Mus musculus [4]. Also, the TD50 in data set [5] was found to be 70.9 mg/kg. Moreover, the results for the median effective dose (ED50) in the data set with Mus musculus [1] and in the data set on Mus musculus [2] were above 100 mg/kg and 20.5 mg/kg, respectively. The result in the data set with Mus musculus [6] and in the data set on Mus musculus [7] was inactive. Also, in the data set with Mus musculus [9], the result was Active.

For the compound `CCCCCCCOc1ccc2c(c1)CCCc1nncn1-2`, the “Ratio TD50/ED50” value with Mus musculus [3] is recorded as 2.6; in the data set listed under Mus musculus [4] it was 3.5. The TD50 in [5] amounted to 68.4 mg/kg. For the same compound, the results for the 50% effective dose (ED50) in the data set with Mus musculus [1] and in the data set with Mus musculus [2] were 26.4 mg/kg and 19.7 mg/kg, respectively. In addition, the result in the data set with Mus musculus [6] and in the data set with Mus musculus [9] was Active.

Turning to `Fc1cccc(COc2ccc3c(c2)CCCc2nncn2-3)c1`, the TD50 in [5] is above 100 mg/kg. Moreover, the ED50 is above 100 mg/kg in the data set with Mus musculus [1] and 27.4 mg/kg in the data set on Mus musculus [2]. Besides, the result in the data set with Mus musculus [6] and with Mus musculus [8] was Active. The outcome with Mus musculus [7] was inactive.

As to `Clc1ccc(COc2ccc3c(c2)CCCc2nncn2-3)cc1`, the entries for the “Ratio TD50/ED50” value in the data set on Mus musculus [3] and in the data set filed under Mus musculus [4] were 1.4 and 3.7, respectively. In addition, in data set [5], the TD50 came to 98.6 mg/kg. The 50% effective dose (ED50) is 68.2 mg/kg with Mus musculus [1] and 27.4 mg/kg in the data set on Mus musculus [2]. Besides, the outcome in the data set on Mus musculus [6] and with Mus musculus [8] was Active. In addition, in the data set with Mus musculus [7], the result was inactive.

Turning to `Fc1ccc(COc2ccc3c(c2)CCCc2nncn2-3)cc1`, the “Ratio TD50/ED50” value in the data set on Mus musculus [3] stood at 2.1; in the data set filed under Mus musculus [4], 3.6. Further, in data set [5], the TD50 turned out to be 97.4 mg/kg. For the same compound, the 50% effective dose (ED50) in the data set on Mus musculus [1] was found to be 47.3 mg/kg; with Mus musculus [2] it was 27.4 mg/kg. For the same compound, the result in the data set with Mus musculus [6] and with Mus musculus [8] was Active.

With `Cc1ccc(COc2ccc3c(c2)CCCc2nncn2-3)cc1`, the results for the “Ratio TD50/ED50” value in the data set with Mus musculus [3] and in the data set filed under Mus musculus [4] were 1.1 and 3.6, respectively. For the same compound, the TD50 in data set [5] was found to be 82.9 mg/kg. The ED50 in the data set with Mus musculus [1] amounted to 90.1 mg/kg; in the data set on Mus musculus [2], 27.4 mg/kg. Besides, the outcome in the data set on Mus musculus [6] and in the data set on Mus musculus [7] was inactive. Besides, the outcome in the data set with Mus musculus [8] was Active.

For the compound `Brc1ccc(COc2ccc3c(c2)CCCc2nncn2-3)cc1`, the “Ratio TD50/ED50” value came out at 0.9 in the data set with Mus musculus [3] and 3 in the data set filed under Mus musculus [4]. For the same compound, in [5], the TD50 came out at 96.2 mg/kg. Also, the values for the median effective dose (ED50) in the data set with Mus musculus [1] and in the data set with Mus musculus [2] were above 100 mg/kg and 27 mg/kg, respectively. Besides, the outcome in the data set on Mus musculus [6] and with Mus musculus [8] was Active. The outcome in the data set with Mus musculus [7] was inactive.

`CCCOc1ccc2c(c1)CCCc1nncn1-2`: in the data set on Mus musculus [11], the TD50 result is “Not Active”. Also, the median effective dose (ED50) in the data set with Mus musculus [1] is above 100 mg/kg; in the data set with Mus musculus [2] it was 73.3 mg/kg. For the same compound, the outcome with Mus musculus [6] and in the data set with Mus musculus [7] was inactive. The outcome with Mus musculus [8] was Active.

For the origin of these results see ChEMBL document CHEMBL3045006, “Synthesis and anticonvulsant activity of 8-alkoxy-5,6-dihydro-4H-benzo[f][1,2,4]triazolo[4,3-a]azepine derivatives” (Med Chem Res, 2012).
